Like-named read-outs stand apart in the source and are kept apart here.

What is called AUC(0-t) is the area under the concentration-time curve up to a stated or last time point. A low value points to low exposure. For orientation: clearance means a measure of how efficiently the substance is removed, as volume per time. Read a high clearance as efficient removal. Usually bioavailability stands for dose-corrected exposure relative to a reference, in per cent. High values mean much systemic uptake, low ones little systemic uptake. The term IC50 denotes the concentration that gives 50% inhibition.

Data set [1] in a line: Pharmacokinetic test in rats. In kind it is in vivo, SD rats. To be noted: for pharmacokinetic characteristics in rats: conclusion in words; for Kp at 24 h / AUC(0-t) / clearance / Vd / bioavailability: male, SD, rat, rats; for Kp at 24 h: brain/plasma, intravenous, 2.5 mg/kg, 24 h after administration, read-out: Brain/Plasma Ratio (24 h); for AUC(0-t) / clearance / Vd / bioavailability: plasma; for Vd: read-out: Vdss. As to the method:
3.1 Experimental animal: male SD rats, about 220 g, 6-8 weeks old, 6 rats/compound, purchased from Chengdu Ddossy Experimental Animals Co., Ltd.
3.2 Experimental design: on the day of the experiment, 30 SD rats were randomly grouped according to their body weights. The animals were fasted with water available for 12 to 14 h one day before the administration and were fed 4 h after the administration.
(§1) Before and after the administration, 0.15 ml of blood was taken from the orbit of the animals under isoflurane anesthesia and placed in an EDTAK2 centrifuge tube. The blood was centrifuged at 5000 rpm and 4° C. for 10 min to collect plasma. The blood collection time points for the intravenous administration group and intragastric administration group were 0, 5 min, 15 min, 30 min, 1 h, 2 h, 4 h, 6 h, 8 h and 24 h. The brain tissues were collected 24 hours after administration, rinsed with cold physiological saline to remove the residual blood on the surface, drained out and then homogenized. Before analysis and detection, all samples were stored at −80° C. The samples were analyzed quantitatively by LC-MS/MS.

The test system of the next data set is MDA-MB-436 cells. Nature of the data set: MDA-MB-436 cell activity test (CellTiter-Glo, 7 days). It counts as cell-based. To be noted: for IC50: 7 days incubation; for inhibition at 10 µM: read-out: Max inh. % 10 μM. As to the method: Breast tumor cells MDA-MB-436 were purchased from ATCC, the culture medium was Leibovitz's L-15+10% FBS, and the cells were cultured in a CO2-free incubator at 37° C. On day 1, the cells in the exponential growth phase were collected, and the cell suspension was adjusted to 4000 cells/135 μL with the culture medium. 135 μL of the cell suspension was added to each well of a 96-well cell culture plate and incubated overnight. On day 2, compounds at different concentrations were added, and the plate was placed in the incubator and incubated for 7 days. After the incubation was completed, according to operation instructions for a CellTiter-Glo kit (Promega, G7573), 75 μL of CTG solution, which was already pre-melted and equilibrated to room temperature, was added to each well, and the mixture was uniformly mixed for 2 min using a microplate shaker. The plate was placed at room temperature for 10 min, and then […] were measured using an Envision2104 plate reader (PerkinElmer). The inhibition rate was calculated using formula (1), where RLUcompound was the readout of the drug treated group, RLUcontrol was the average value of the vehicle control group, and RLUblank was the average value of the cell-free well. The IC50 value was calculated using GraphPad Prism software
(ATP-based viability assays read luminescence as a measure of living cells.)

A further data set deals with PARP-1 enzyme (Homo sapiens (Human), UniProt P09874). Nature of the data set: PARP-1 enzyme activity test (chemical fluorescence detection kit, BPS Bioscience). In kind it is biochemical. As to the method:
PARP-1 chemical fluorescence detection kit was purchased from BPS Bioscience. The histone solution in the kit was diluted 5× with 1×PBS, and 25 μL of the diluted histone solution was added to a microwell plate and incubated overnight at 4° C. After the incubation, the plate was washed three times with PBST (0.05% Tween-20). 100 μL of the blocking solution was added to the microwell plate and incubated at 25° C. for 90 minutes. After the incubation was completed, the plate was washed three times with PBST. 2.5 μL of compounds at different concentrations diluted in test buffer and 12.5 μL of substrate mixed solution (1.25 μL 10×PARP test buffer; 1.25 μL 10×PARP test mixed solution; 2.5 μL Activated DNA, 7.5 μL double-distilled water) were added to the microwell plate. The PARP-1 enzyme was diluted to 2 ng/μL, […] was added to the microwell plate, and the reaction system was incubated at 25° C. for 60 minutes.
After the incubation was completed, the plate was washed three times with PBST. Streptavidin-HRP was diluted 50× with a blocking solution, and 25 μL of the diluent was added to the microwell plate and incubated at 25° C. for 30 minutes. After the incubation, the plate was washed three times with PBST. ELISA ECL substrate A and substrate B were uniformly mixed at a ratio of 1:1 (v/v), 50 μL of the mixture was added to the microwell plate, and the chemiluminescence value was read.
The inhibition rate was calculated according to formula 1, where RLUsample was the readout of the compound well, RLUmax was the readout of the solvent control well, and RLUmin was the readout of the control well without the PARP-1 enzyme. Curve fitting was performed by four parameters (log(inhibitor) vs. response—Variable slope) using GraphPad Prism software, and the ICso value was calculated.
Inhibition %=(1−(RLUsample−RLUmin)/(RLUmax−RLUmin))×100% (formula 1)

The nature of data set [2]: Pharmacokinetic test in mice. To be noted: for pharmacokinetic characteristics in mice: conclusion in words; for Kp at 24 h / AUC(0-t) / clearance / Vd / bioavailability: male, Balb/c, mouse, mice; for Kp at 24 h: brain/plasma, 24 h after administration, read-out: Brain/Plasma Ratio (24 h); for AUC(0-t) / clearance / Vd / bioavailability: plasma; for Vd: read-out: Vdss. In kind it is in vivo, Balb/c mice. The protocol: 4.1 Experimental animal: male Balb/c mice, 20-25 g, 12 mice/compound, purchased from Chengdu Ddossy Experimental Animals Co., Ltd.
4.2 Experimental design: on the day of the test, 60 Balb/c mice were randomly grouped according to their body weights. The animals were fasted with water available for 12 to 14 h one day before the administration and were fed 4 h after the administration.
as §1, with “administration, 0.06 mL ofblood” for “administration, 0.15 ml of blood”, “8 h,” for “8 h”, “collected at 30 min, 2 h and 24 h after administration of compounds 12, 15 and 18, respectively. The brain tissues were collected” for “collected”, “after administration of compounds 2 and 5,” for “after administration,”

Where [3] appears, read: Homo sapiens, MDA-MB-436, 168 h.
The mark [4] stands for this setting: Homo sapiens, 10 μM, MDA-MB-436 cells.
Setting [5] is: grades, read-out: PARP-1 enzyme activity IC50.

Sequence of PARP-1 enzyme (P09874 whole entry): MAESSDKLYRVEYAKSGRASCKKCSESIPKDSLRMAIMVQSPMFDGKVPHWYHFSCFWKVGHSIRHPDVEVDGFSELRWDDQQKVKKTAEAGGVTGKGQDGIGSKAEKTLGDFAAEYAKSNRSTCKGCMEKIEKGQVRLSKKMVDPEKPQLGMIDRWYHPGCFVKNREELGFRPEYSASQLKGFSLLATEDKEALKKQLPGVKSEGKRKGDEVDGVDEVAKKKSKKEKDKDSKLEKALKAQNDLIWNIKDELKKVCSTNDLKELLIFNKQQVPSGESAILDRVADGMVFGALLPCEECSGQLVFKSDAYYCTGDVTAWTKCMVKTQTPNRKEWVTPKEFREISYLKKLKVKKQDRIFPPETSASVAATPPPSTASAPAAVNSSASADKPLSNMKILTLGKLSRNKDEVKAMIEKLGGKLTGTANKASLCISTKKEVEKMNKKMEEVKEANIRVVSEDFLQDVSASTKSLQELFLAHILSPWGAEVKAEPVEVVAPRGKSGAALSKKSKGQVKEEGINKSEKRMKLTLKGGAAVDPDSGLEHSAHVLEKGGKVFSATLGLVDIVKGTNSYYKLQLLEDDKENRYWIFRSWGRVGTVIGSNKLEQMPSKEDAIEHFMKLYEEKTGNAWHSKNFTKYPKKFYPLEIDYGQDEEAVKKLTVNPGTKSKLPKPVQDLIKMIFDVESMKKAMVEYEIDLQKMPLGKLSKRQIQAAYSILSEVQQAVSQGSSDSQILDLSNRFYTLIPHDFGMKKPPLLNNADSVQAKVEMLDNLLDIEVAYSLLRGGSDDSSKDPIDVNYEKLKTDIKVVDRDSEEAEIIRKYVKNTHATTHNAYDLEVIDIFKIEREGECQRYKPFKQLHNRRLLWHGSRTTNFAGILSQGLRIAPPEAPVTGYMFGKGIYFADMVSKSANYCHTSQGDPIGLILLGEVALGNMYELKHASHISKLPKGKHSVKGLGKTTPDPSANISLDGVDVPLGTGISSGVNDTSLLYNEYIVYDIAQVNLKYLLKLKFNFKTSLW

As to `Cc1nc2ccc(CN3CCN(c4ccc(C(=O)N[C@@H]5C[C@@H]5F)nc4F)CC3)c(F)c2[nH]c1=O` [Compound 4, 6-fluoro-5-(4-((5-fluoro-2-methyl-3-oxo-3,4-dihydroquinoxalin-6-yl)methyl)piperazin-1-yl)-N-((1R,2S)-2-fluorocyclopropyl)picolinamide], in data set [1], the “pharmacokinetic characteristics in rats” value is “good pharmacokinetic characteristics” and the Kp at 24 h stood at 0.315. Besides, in data set [1] (iv, i.v. 2.5 mg/kg), the AUC(0-t) is 7390 ± 663 ng·h/mL, the clearance worked out at 5.36 ± 0.068 mL/min/kg and the Vd was determined as 1.13 ± 0.071 L/kg. Moreover, in data set [1] (po, i.g. 10 mg/kg), the bioavailability was no less than 98% and the AUC(0-t) is 33400 ± 2670 ng·h/mL. The IC50 in the data set with MDA-MB-436 cells (setting [3]) was found to be 32.8 nM. Also, in the data set with MDA-MB-436 cells (setting [4]), the inhibition at 10 µM turned out to be 80.1%. In addition, the IC50 on PARP-1 enzyme (setting [5]) was less than 5 nM.
With `Cc1nc2ccc(CN3CCN(c4ccc(C(=O)N[C@H]5C[C@H]5F)nc4F)CC3)c(F)c2[nH]c1=O` [Compound 5, 6-fluoro-5-(4-((5-fluoro-2-methyl-3-oxo-3,4-dihydroquinoxalin-6-yl)methyl)piperazin-1-yl)-N-((1S,2R)-2-fluorocyclopropyl)picolinamide], in data set [2], the “pharmacokinetic characteristics in mice” value was “good pharmacokinetic characteristics” and the Kp at 24 h amounted to 0.911. For the same molecule, in data set [2] (iv, i.v. 2.5 mg/kg), the AUC(0-t) is 2750 ± 212 ng·h/mL, the clearance came to 15.2 ± 1.1 mL/min/kg and the Vd was determined as 2.85 ± 0.23 L/kg. In data set [2] (po, i.g. 10 mg/kg), this molecule displayed a bioavailability of no less than 98% and an area under the curve AUC(0-t) of 12700 ± 817 ng·h/mL. In the data set on MDA-MB-436 cells (setting [3]), this molecule had a concentration for half-maximal inhibition (IC50) of 28 nM. The inhibition at 10 µM in the data set on MDA-MB-436 cells (setting [4]) is 79.8%. Also, the half-inhibitory concentration (IC50) at PARP-1 enzyme (setting [5]) is less than 5 nM.
For the molecule `Cn1cc(NC(=O)c2ccc(N3CCN(Cc4ccc5nc(C(F)F)c(=O)[nH]c5c4F)CC3)c(F)n2)cn1` [Compound 15], in data set [1], the “pharmacokinetic characteristics in rats” value was “good pharmacokinetic characteristics” and the Kp at 24 h was 0.916. Moreover, in data set [1] (iv, i.v. 2.5 mg/kg), the exposure AUC(0-t) is 25800 ± 2870 ng·h/mL, the clearance came to 1.63 ± 0.18 mL/min/kg and the Vd is 0.192 ± 0.022 L/kg. Also, in data set [1] (po, i.g. 10 mg/kg), the bioavailability is 87.2 ± 14% and the AUC(0-t) came to 89800 ± 14000 ng·h/mL. In addition, the “pharmacokinetic characteristics in mice” value in data set [2] is “good pharmacokinetic characteristics”. In data set [2] (iv, i.v. 2.5 mg/kg), the AUC(0-t) turned out to be 16300 ± 1740 ng·h/mL, the clearance was 2.57 ± 0.29 mL/min/kg and the Vd worked out at 0.342 ± 0.04 L/kg. In data set [2] (po, i.g. 10 mg/kg), the bioavailability was no less than 98% and the AUC(0-t) was determined as 67200 ng·h/mL. This molecule came in with an IC50 with MDA-MB-436 cells (setting [3]) of 6.8 nM. Also, in the data set with MDA-MB-436 cells (setting [4]), the inhibition at 10 µM turned out to be 74.2%.
Regarding “1-(difluoromethyl)-N-(5-(4-((2-(difluoroethyl(-5-fluoro-3-oxo-3,4-dihydroquinoxalin-6-yl)methyl)piperazin-1-yl)-6-fluoropyridin-2-yl)-1H-pyrazole-4-carboxamide [Compound 17]”, the “Max inh. % 10 μM” value in the data set with MDA-MB-436 cells (10 μM, MDA-MB-436 cells) amounted to 72.33%. Moreover, the IC50 was 19.4 nM with MDA-MB-436 cells and less than 5 nM at PARP-1 enzyme (setting [5]).
For `Cc1nc2ccc(CN3CCN(c4ccc(C(=O)Nc5cnn(C)c5)nc4F)CC3)c(F)c2[nH]c1=O` [Compound 2, 6-fluoro-5-(4-((5-fluoro-2-methyl-3-oxo-3,4-dihydroquinoxalin-6-yl)methyl)piperazin-1-yl)-N-(1-methyl-1H-pyrazol-4-yl)picolinamide], in data set [2], the “pharmacokinetic characteristics in mice” value was “good pharmacokinetic characteristics” and the Kp at 24 h is 5.23. Further, in data set [2] (iv, i.v. 2.5 mg/kg), the AUC(0-t) was 1870 ± 154 ng·h/mL, the clearance worked out at 21.6 ± 1.3 mL/min/kg and the Vd came to 2.09 ± 0.52 L/kg. For the same molecule, in data set [2] (po, i.g. 10 mg/kg), the bioavailability is 97.4% and the AUC(0-t) came to 7270 ± 793 ng·h/mL. In addition, the IC50 in the data set with MDA-MB-436 cells (setting [3]) was determined as 3.5 nM. Also, the inhibition at 10 µM in the data set on MDA-MB-436 cells (setting [4]) amounted to 86%. In addition, the IC50 on PARP-1 enzyme (setting [5]) was less than 5 nM. Further, the IC50 on PARP-1 enzyme (read-out: IC50 value on PARP-1) worked out at 0.79 nM.
In the case of `Cn1cc(C(=O)Nc2ccc(N3CCN(Cc4ccc5nc(C(F)F)c(=O)[nH]c5c4F)CC3)c(F)n2)c(F)n1` [Compound 18, N-(5-(4-((2-(difluoromethyl)-5-fluoro-3-oxo-3,4-dihydroquinoxalin-6-yl)methyl)piperazin-1-yl)-6-fluoropyridin-2-yl)-3-fluoro-1-methyl-1H-pyrazole-4-carboxamide], the “pharmacokinetic characteristics in rats” value in data set [1] is “good pharmacokinetic characteristics”. Also, in data set [1] (iv, i.v. 2.5 mg/kg), the area under the curve AUC(0-t) amounted to 22000 ± 838 ng·h/mL, the clearance turned out to be 1.9 ± 0.071 mL/min/kg and the Vd is 0.294 ± 0.011 L/kg. In data set [1] (po, i.g. 10 mg/kg), this molecule gave a bioavailability of no less than 98% and an exposure AUC(0-t) of 87600 ± 11700 ng·h/mL. Besides, in data set [2], the “pharmacokinetic characteristics in mice” value is given as “good pharmacokinetic characteristics”. Further, in data set [2] (iv, i.v. 2.5 mg/kg), the AUC(0-t) is 8150 ± 811 ng·h/mL, the clearance came out at 5.14 ± 0.53 mL/min/kg and the Vd was 0.582 ± 0.029 L/kg. In data set [2] (po, i.g. 10 mg/kg), this molecule showed a bioavailability of no less than 98% and an exposure AUC(0-t) of 32300 ng·h/mL. In addition, on PARP-1 enzyme (setting [5]), the 50% inhibitory concentration (IC50) is less than 5 nM.
For the molecule `Cc1nc2ccc(CN3CC=C(c4ccc(C(=O)Nc5cnn(C)c5)nc4F)CC3)c(F)c2[nH]c1=O` [Compound 9, 2-fluoro-1′-((5-fluoro-2-methyl-3-oxo-3,4-dihydroquinoxalin-6-yl)methyl)-N-(1-methyl-1H-pyrazol-4-yl)-1′,2′,3′,6′-tetrahydro-[3,4′-bipyridine]-6-carboxamide], the IC50 with MDA-MB-436 cells (setting [3]) came to 1.5 nM. For the same molecule, in the data set on MDA-MB-436 cells (setting [4]), the inhibition at 10 µM amounted to 84.4%.

These data come from US20250346571A1, “BICYCLIC DERIVATIVE PARP INHIBITOR AND USE THEREOF” (XIZANG HAISCO PHARMACEUTICAL CO., LTD., priority 2022, published 2025).
